# Data reported in US11866450B2, “Modulators of Cystic Fibrosis Transmembrane Conductance regulator, pharmaceutical compositions, methods of treatment, and process for making the modulators” (priority 2018, dated 2024).
# Target: CFTR-mediated chloride transport (Homo sapiens, UniProt P13569)
# Format: cell-based
# Conditions: enteroid cells incubated with test compound 18-24 hours, acute 10 μM forskolin and 300 nM Compound III; for Max. Activity: % of chloride transport with 3 μM Compound A, 3 μM Compound II and 300 nM acute Compound III triple combination control
# Procedure, shortened: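 Human intestinal enteroid cells incubated with compound 18–24 h at 37° C., then membrane potential dye (FLIPR) read 15 min after chloride-free stimulation with 10 μM forskolin, 100 μM IBMX and 300 nM Compound III. AUC expressed as % of triple-combination control (3 μM Compound A, 3 μM Compound II, 300 nM Compound III).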
# CFTR-mediated chloride transport, sequence (P13569 whole entry, looked up): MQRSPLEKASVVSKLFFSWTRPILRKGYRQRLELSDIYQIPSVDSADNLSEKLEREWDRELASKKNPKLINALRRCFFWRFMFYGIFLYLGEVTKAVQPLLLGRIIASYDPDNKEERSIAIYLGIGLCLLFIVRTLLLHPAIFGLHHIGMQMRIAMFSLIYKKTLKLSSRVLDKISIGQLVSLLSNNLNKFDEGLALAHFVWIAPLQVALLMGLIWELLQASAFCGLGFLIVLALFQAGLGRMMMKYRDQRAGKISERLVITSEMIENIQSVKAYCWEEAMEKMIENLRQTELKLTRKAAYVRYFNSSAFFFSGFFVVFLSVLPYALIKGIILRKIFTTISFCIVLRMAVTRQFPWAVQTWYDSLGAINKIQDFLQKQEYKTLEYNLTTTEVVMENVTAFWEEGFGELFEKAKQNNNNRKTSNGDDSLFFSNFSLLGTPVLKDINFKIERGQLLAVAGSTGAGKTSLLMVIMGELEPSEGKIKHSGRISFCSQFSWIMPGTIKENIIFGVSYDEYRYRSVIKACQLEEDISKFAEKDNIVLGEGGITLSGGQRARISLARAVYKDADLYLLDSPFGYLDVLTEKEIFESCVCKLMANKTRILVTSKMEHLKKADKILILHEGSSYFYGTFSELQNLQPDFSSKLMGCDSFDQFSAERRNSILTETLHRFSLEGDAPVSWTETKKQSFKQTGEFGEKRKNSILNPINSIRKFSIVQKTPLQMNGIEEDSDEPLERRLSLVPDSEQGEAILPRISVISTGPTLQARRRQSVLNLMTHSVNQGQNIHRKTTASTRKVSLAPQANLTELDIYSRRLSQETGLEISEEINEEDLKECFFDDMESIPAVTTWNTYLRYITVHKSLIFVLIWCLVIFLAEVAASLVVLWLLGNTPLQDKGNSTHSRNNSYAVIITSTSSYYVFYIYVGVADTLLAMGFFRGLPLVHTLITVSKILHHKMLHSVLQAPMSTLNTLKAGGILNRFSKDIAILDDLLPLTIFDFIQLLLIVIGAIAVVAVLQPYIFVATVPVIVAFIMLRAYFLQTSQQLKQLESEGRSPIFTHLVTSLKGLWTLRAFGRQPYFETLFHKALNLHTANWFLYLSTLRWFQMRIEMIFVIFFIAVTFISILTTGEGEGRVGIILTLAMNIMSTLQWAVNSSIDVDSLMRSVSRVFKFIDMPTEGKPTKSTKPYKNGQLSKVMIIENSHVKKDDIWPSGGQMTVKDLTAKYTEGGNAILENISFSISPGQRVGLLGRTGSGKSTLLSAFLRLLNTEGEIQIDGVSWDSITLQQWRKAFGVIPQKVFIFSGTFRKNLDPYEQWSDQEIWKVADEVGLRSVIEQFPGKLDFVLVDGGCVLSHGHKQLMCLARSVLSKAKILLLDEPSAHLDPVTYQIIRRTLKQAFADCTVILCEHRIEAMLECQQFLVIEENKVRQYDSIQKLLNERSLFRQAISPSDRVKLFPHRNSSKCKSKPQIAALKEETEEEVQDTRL
Compound,EC50 [nM],Max. Activity
"CC1(C)C[C@H]2CCCNc3ccc(cn3)S(=O)(=O)NC(=O)c3ccc(-n4ccc(OCCC5(C(F)(F)F)CC5)n4)nc3N1C2 (single isomer, unassigned) [Compound 72, 12,12-dimethyl-8-(3-{2-[1-(trifluoromethyl)cyclopropyl]ethoxy}-1H-pyrazol-1-yl)-2λ^6-thia-3,9,11,18,20-pentaazatetracyclo[17.2.2.111,14.05,10]tetracosa-1(22),5,7,9,19(23),20-hexaene-2,2,4-trione]",> 3000,+ (+ is <30%)
"CC1CCC2CN(c3nc(N4CCN(CCC(C)(C)C)C4=O)ccc3C(=O)NS(=O)(=O)c3cccc(n3)N1)C(C)(C)C2 (centres unmarked) [Compound 209, 8-[3-(3,3-Dimethylbutyl)-2-oxoimidazolidin-1-yl]-12,12,17-trimethyl-2λ^6-thia-3,9,11,18,23-pentaazatetracyclo[17.3.1.111,14.05,10]tetracosa-1(22),5,7,9,19(23),20-hexaene-2,2,4-trione]",< 1000,++ (++ is 30-60%)
"CC1(C)C[C@H]2CCCNc3cccc(n3)S(=N)(=O)NC(=O)c3ccc(-n4ccc(OCCC5(C(F)(F)F)CC5)n4)nc3N1C2 (single isomer, unassigned) [Compound 271, 2-Imino-12,12-dimethyl-8-(3-{2-[1-(trifluoromethyl)cyclopropyl]ethoxy}-1H-pyrazol-1-yl)-2λ^6-thia-3,9,11,18,23-pentaazatetracyclo[17.3.1.111,14.05,10]tetracosa-1(23),5,7,9,19,21-hexaene-2,4-dione]",< 1000,+++ (+++ is >60%)
"CC1(C)C[C@H]2CCCn3ccc(n3)S(=O)(=O)NC(=O)c3ccc(-n4ccc(OCCC5C6(CC6)C56CC6)n4)nc3N1C2 [Compound 186, (18R)-4-[3-(2-{dispiro[2.0.2.1]heptan-7-yl}ethoxy)-1H-pyrazol-1-yl]-20,20-dimethyl-10λ^6-thia-1,3,9,14,22-pentaazatetracyclo[16.2.1.111,14.02,7]docosa-2,4,6,11(22),12-pentaene-8,10,10-trione]",< 1000,+ (+ is <30%)
"CC1(C)CC[C@H]2CCCCNc3cccc(n3)S(=O)(=O)NC(=O)c3ccc(-n4ccc(OCCC5(C(F)(F)F)CC5)n4)nc3N21 (single isomer, unassigned) [Compound 46, 12,12-dimethyl-8-(3-{2-[1-(trifluoromethyl)cyclopropyl]ethoxy}-1H-pyrazol-1-yl)-2λ^6-thia-3,9,11,20,25-pentaazatetracyclo[19.3.1.05,10.011,15]pentacosa-1(24),5,7,9,21(25),22-hexaene-2,2,4-trione]",> 3000,+ (+ is <30%)
"CC1(C)C[C@@H]2CCCNc3cccc(n3)S(=O)(=O)NC(=O)c3ccc(-n4ccc(OCC[C@@H](O)C5(C(F)(F)F)CC5)n4)nc3N1C2 (single isomer, unassigned) [Compound 296]",< 1000,+++ (+++ is >60%)
"CC1(C)C[C@H]2CCCOc3ccc(cc3)S(=O)(=O)NC(=O)c3ccc(-n4ccc(OCCC5(C(F)(F)F)CC5)n4)nc3N1C2 (single isomer, unassigned) [Compound 99, 12,12-dimethyl-8-(3-{2-[1-(trifluoromethyl)cyclopropyl]ethoxy}-1H-pyrazol-1-yl)-18-oxa-2λ^6-thia-3,9,11-triazatetracyclo[17.2.2.111,14.05,10]tetracosa-1(21),5,7,9,19,22-hexaene-2,2,4-trione]",< 1000,+++ (+++ is >60%)
"CC1(C)C[C@H]2C[C@@H](F)CNc3cccc(n3)S(=O)(=O)NC(=O)c3ccc(-n4ccc(OCCC5C6(CC6)C56CC6)n4)nc3N1C2 (single isomer, unassigned) [Compound 306, 8-[3-(2-{dispiro[2.0.2.1]heptan-7-yl}ethoxy)-1H-pyrazol-1-yl]-16-fluoro-12,12-dimethyl-2λ^6-thia-3,9,11,18,23-pentaazatetracyclo[17.3.1.111,14.05,10]tetracosa-1(22),5,7,9,19(23),20-hexaene-2,2,4-trione]",< 1000,+++ (+++ is >60%)
"Cc1ccc2nc1S(=O)(=O)NC(=O)c1ccc(-n3ccc(OCCC4(C(F)(F)F)CC4)n3)nc1N1C[C@H](CCCN2)CC1(C)C (single isomer, unassigned) [Compound 148, 12,12,22-trimethyl-8-(3-{2-[1-(trifluoromethyl)cyclopropyl]ethoxy}-1H-pyrazol-1-yl)-2λ^6-thia-3,9,11,18,23-pentaazatetracyclo[17.3.1.111,14.05,10]tetracosa-1(23),5(10),6,8,19,21-hexaene-2,2,4-trione]",> 3000,+ (+ is <30%)
"Cc1c2cnn1CCCC1CN(c3nc(-n4ccc(OCC(C)(C)C(F)(F)F)n4)ccc3C(=O)NS2(=O)=O)C(C)(C)C1 (single isomer, unassigned) [Compound 289, 20,20,22-Trimethyl-4-[3-(3,3,3-trifluoro-2,2-dimethylpropoxy)-1H-pyrazol-1-yl]-10λ^6-thia-1,3,9,13,14-pentaazatetracyclo[16.2.1.111,14.02,7]docosa-2,4,6,11(22),12-pentaene-8,10,10-trione]",< 1000,++ (++ is 30-60%)
"CC1(C)C[C@H]2C[C@@H](F)CNc3cccc(n3)S(=O)(=O)NC(=O)c3ccc(-n4ccc(OCCC5C6(CC6)C56CC6)n4)nc3N1C2 (single isomer, unassigned) [Compound 308, 8-[3-(2-{dispiro[2.0.2.1]heptan-7-yl}ethoxy)-1H-pyrazol-1-yl]-16-fluoro-12,12-dimethyl-2λ^6-thia-3,9,11,18,23-pentaazatetracyclo[17.3.1.111,14.05,10]tetracosa-1(22),5,7,9,19(23),20-hexaene-2,2,4-trione]",< 1000,+ (+ is <30%)
"CC1(C)CC[C@H]2CCCOc3cccc(c3)S(=O)(=O)NC(=O)c3ccc(-n4ccc(OCCC5(C(F)(F)F)CC5)n4)nc3N21 (single isomer, unassigned) [Compound 8, 12,12-dimethyl-8-(3-{2-[1-(trifluoromethyl)cyclopropyl]ethoxy}-1H-pyrazol-1-yl)-19-oxa-2λ^6-thia-3,9,11-triazatetracyclo[18.3.1.05,10.011,15]tetracosa-1(24),5(10),6,8,20,22-hexaene-2,2,4-trione]",> 3000,+ (+ is <30%)
"CC1(C)C[C@H]2CCCCc3cccc(n3)S(=O)(=O)NC(=O)c3ccc(-n4ccc(OCCC5(C(F)(F)F)CC5)n4)nc3N1C2 (single isomer, unassigned) [Compound 86, 12,12-dimethyl-8-(3-{2-[1-(trifluoromethyl)cyclopropyl]ethoxy}-1H-pyrazol-1-yl)-2λ^6-thia-3,9,11,23-tetraazatetracyclo[17.3.1.111,14.05,10]tetracosa-1(23),5,7,9,19,21-hexaene-2,2,4-trione]",> 3000,+ (+ is <30%)
"CC1(C)C[C@@H]2CCCNc3cccc(n3)S(=O)(=O)NC(=O)c3ccc(N4CC[C@H](OCC56CC7CC(CC(C7)C5)C6)C4=O)nc3N1C2 (single isomer, unassigned) [Compound 244]",< 1000,++ (++ is 30-60%)
"CC1(C)C[C@@H]2CN1c1nc(-n3ccc(OCCC4C5(CC5)C45CC5)n3)ccc1C(=O)NS(=O)(=O)c1cccc(n1)NCC(F)(F)C2 (single isomer, unassigned) [Compound 304, 8-[3-(2-{dispiro[2.0.2.1]heptan-7-yl}ethoxy)-1H-pyrazol-1-yl]-16,16-difluoro-12,12-dimethyl-2λ^6-thia-3,9,11,18,23-pentaazatetracyclo[17.3.1.111,14.05,10]tetracosa-1(22),5,7,9,19(23),20-hexaene-2,2,4-trione]",< 1000,+++ (+++ is >60%)
"CC1(C)C[C@@H]2CN1c1nc(-n3ccc(OCCC4C5(CC5)C45CC5)n3)ccc1C(=O)NS(=O)(=O)c1cccc(n1)NCCO2 (single isomer, unassigned) [Compound 196, 8-[3-(2-{dispiro[2.0.2.1]heptan-7-yl}ethoxy)-1H-pyrazol-1-yl]-12,12-dimethyl-15-oxa-2λ^6-thia-3,9,11,18,23-pentaazatetracyclo[17.3.1.111,14.05,10]tetracosa-1(23),5(10),6,8,19,21-hexaene-2,2,4-trione]",1000 to 3000,++ (++ is 30-60%)
"Cc1cc2nn1CCC[C@H]1CN(c3nc(-n4ccc(OCCC5(C(F)(F)F)CC5)n4)ccc3C(=O)NS2(=O)=O)C(C)(C)C1 (single isomer, unassigned) [Compound 150, 13,20,20-Trimethyl-4-(3-{2-[1-(trifluoromethyl)cyclopropyl]ethoxy}-1H-pyrazol-1-yl)-10λ^6-thia-1,3,9,14,22-pentaazatetracyclo[16.2.1.111,14.02,7]docosa-2,4,6,11(22),12-pentaene-8,10,10-trione]",1000 to 3000,+ (+ is <30%)
"C[C@@H]1CC[C@H]2CN(c3nc(N4CCN(CCC(C)(C)C)C4=O)ccc3C(=O)NS(=O)(=O)c3cccc(n3)N1)C(C)(C)C2 (single isomer, unassigned) [Compound 218, 8-[3-(3,3-dimethylbutyl)-2-oxoimidazolidin-1-yl]-12,12,17-trimethyl-2λ^6-thia-3,9,11,18,23-pentaazatetracyclo[17.3.1.111,14.05,10]tetracosa-1(22),5,7,9,19(23),20-hexaene-2,2,4-trione]",> 3000,+ (+ is <30%)
"CC1(C)C[C@H]2CCCNc3cccc(n3)S(=O)(=O)NC(=O)c3ccc(-n4ccc(OCC5(C(F)(F)F)CC5)n4)nc3N1C2 (single isomer, unassigned) [Compound 21, 12,12-dimethyl-8-(3-{[1-(trifluoromethyl)cyclopropyl]methoxy}-1H-pyrazol-1-yl)-2λ^6-thia-3,9,11,18,23-pentaazatetracyclo[17.3.1.111,14.05,10]tetracosa-1(23),5(10),6,8,19,21-hexaene-2,2,4-trione]",> 3000,++ (++ is 30-60%)
